For orientation: inhibition means the drop in the measured response relative to a control, in per cent. The term IC50 denotes the concentration at which inhibition is half-maximal. Low values mean greater potency in that assay, high ones weaker potency in that assay. For orientation: Kp means tissue or fluid exposure divided by exposure in the circulation. A word on the Tmax: it is the time from dosing to the highest level.

Data set [1] is described as follows: Inhibition of alpha1 adrenergic receptor at 10 uM.
For the next data set, the target named is Cytochrome P450 2C19 (Homo sapiens, UniProt P33261). Description: Inhibition of CYP2C19. The format is ADME.
Another data set has as its target Cytochrome P450 3A4 (Homo sapiens, UniProt P08684). Description: Inhibition of CYP3A4. The format is ADME.
The next data set deals with Cytochrome P450 2D6 (Homo sapiens, UniProt P10635). Description: Inhibition of CYP2D6. The data set is classed as ADME.
Another data set deals with Liver microsomes. As to the kind of experiment: Intrinsic clearance in human liver microsomes. The data set is classed as ADME, Microsome. For orientation: Liver microsomes are vesicles of endoplasmic reticulum, rich in cytochrome P450 enzymes.
For the next data set, the target named is Cytochrome P450 2C9 (Homo sapiens, UniProt P11712). Description: Inhibition of CYP2C9. The data set is classed as ADME.
A further data set deals with T1, Cytochrome P450 1A2 (Homo sapiens, UniProt P05177).
T1 sequence (P05177 whole entry): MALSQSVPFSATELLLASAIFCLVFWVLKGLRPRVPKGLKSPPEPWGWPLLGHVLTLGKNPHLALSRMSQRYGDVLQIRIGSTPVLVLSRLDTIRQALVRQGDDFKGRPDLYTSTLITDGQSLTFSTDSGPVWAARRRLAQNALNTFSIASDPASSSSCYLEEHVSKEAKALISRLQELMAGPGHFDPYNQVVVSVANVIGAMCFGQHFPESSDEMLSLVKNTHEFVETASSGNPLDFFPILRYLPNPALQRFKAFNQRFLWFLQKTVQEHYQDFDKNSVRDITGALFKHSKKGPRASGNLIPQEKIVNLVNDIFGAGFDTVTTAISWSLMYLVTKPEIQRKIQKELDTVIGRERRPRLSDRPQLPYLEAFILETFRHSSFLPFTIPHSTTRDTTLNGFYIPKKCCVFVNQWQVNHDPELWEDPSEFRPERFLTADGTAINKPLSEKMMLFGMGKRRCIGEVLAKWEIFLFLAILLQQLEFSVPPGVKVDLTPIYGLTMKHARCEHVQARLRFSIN
As to the kind of experiment: Inhibition of CYP1A2. The format is ADME.

The target in data set [2] is Glutamate receptor ionotropic, NMDA 2B (Homo sapiens, UniProt Q05586+Q13224). Description: Displacement of [3H]-Ro256981 from human NR2B receptor. Background: In a radioligand displacement assay an active substance lowers the binding of a labelled ligand.
The next data set is filed under the species Homo sapiens. Description: Selectivity ratio of human NR2B receptor over human ERG.
The target in data set [3] is T2, Glutamate NMDA receptor; GRIN1/GRIN2B (Homo sapiens) (UniProt Q05586+Q13224). Description: Reversible inhibition of human NR1-NR2B receptor expressed in HEK293T cells assessed as inhibition of glutamate-induced response by whole cell voltage clamp electrophysiology assay. The data set is classed as cell-based. The settings on record: HEK-293T.
Data set [4] addresses T2, Glutamate NMDA receptor; GRIN1/GRIN2B (Homo sapiens). As to the kind of experiment: Reversible inhibition of human NR1-NR2B receptor expressed in HEK293T cells assessed as inhibition of glycine-induced response by whole cell voltage clamp electrophysiology assay. The format is cell-based. To be noted: HEK-293T.
The nature of data set [5]: Antagonist activity at human NR1-NR2A receptor by FLIPR-based Ca2+ flux assay. In general terms: Calcium assays in cells follow changes in intracellular calcium, usually with a dye or a luminescent sensor.
The nature of data set [6]: Ratio of drug level in brain to blood in rat at 3 mg/kg, sc. The format is ADME, organism-based. Further details: dose 3 mg/kg, route subcutaneous.
Data set [7] can be described thus: Tmax in rat at 3 mg/kg, sc. The format is ADME, organism-based. Details: dose 3 mg/kg, route subcutaneous. To be noted: in vivo.
A short description of data set [8]: Terminal half life in rat at 3 mg/kg, sc. To be noted: in vivo, read-out: beta t1/2 (converted). The data set is classed as ADME, organism-based. Details: dose 3 mg/kg, route subcutaneous.
The next data set has as its system Blood. Description: Drug uptake in rat blood at 3 mg/kg, sc. Details: dose 3 mg/kg, route subcutaneous. To be noted: in vivo, read-out: Drug uptake. The data set is classed as ADME, organism-based.

Molecules are shown by their SMILES. Active and inactive are the calls of the source. No cut-off for these calls is given here.

Chain of Cytochrome P450 3A4 (P08684 whole entry): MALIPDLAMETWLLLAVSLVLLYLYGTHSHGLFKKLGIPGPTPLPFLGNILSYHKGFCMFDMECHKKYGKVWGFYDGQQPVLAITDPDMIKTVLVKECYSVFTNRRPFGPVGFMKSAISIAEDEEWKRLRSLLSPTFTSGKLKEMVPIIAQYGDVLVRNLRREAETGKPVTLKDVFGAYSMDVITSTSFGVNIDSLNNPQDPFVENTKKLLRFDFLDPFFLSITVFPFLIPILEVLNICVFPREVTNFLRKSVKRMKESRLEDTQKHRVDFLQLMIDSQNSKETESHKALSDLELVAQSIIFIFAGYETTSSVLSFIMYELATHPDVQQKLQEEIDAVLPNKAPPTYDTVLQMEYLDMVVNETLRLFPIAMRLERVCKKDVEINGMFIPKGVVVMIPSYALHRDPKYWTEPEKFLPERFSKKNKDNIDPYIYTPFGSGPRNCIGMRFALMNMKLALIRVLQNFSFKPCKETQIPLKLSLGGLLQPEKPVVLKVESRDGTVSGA
Chain of Cytochrome P450 2D6 (P10635 whole entry): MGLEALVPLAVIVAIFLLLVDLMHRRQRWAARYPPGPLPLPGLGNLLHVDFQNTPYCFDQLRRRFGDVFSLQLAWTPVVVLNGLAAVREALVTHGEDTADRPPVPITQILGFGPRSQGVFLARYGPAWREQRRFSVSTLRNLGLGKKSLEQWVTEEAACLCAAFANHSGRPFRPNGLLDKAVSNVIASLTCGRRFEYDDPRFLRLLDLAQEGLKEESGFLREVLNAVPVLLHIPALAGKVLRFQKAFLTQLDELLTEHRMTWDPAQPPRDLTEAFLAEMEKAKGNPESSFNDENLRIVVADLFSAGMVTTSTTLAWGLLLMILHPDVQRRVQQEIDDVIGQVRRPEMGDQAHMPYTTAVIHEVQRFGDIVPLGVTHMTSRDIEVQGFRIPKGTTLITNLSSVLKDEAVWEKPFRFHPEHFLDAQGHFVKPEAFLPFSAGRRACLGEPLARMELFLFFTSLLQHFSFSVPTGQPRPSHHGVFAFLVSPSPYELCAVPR
Chain of Cytochrome P450 2C19 (P33261 whole entry): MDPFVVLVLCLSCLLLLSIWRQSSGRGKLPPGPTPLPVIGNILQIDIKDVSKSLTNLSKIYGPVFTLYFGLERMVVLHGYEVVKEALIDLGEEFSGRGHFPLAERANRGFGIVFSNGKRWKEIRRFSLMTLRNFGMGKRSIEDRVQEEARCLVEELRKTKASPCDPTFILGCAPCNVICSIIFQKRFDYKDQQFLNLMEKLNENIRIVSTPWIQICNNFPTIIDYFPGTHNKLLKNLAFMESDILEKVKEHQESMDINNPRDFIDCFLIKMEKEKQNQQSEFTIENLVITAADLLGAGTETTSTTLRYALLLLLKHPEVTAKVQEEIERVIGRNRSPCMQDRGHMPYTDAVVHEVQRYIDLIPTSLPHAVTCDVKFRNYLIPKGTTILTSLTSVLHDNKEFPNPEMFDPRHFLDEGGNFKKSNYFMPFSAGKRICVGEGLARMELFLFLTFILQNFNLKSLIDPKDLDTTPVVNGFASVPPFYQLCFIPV
Chain of Cytochrome P450 2C9 (P11712 whole entry): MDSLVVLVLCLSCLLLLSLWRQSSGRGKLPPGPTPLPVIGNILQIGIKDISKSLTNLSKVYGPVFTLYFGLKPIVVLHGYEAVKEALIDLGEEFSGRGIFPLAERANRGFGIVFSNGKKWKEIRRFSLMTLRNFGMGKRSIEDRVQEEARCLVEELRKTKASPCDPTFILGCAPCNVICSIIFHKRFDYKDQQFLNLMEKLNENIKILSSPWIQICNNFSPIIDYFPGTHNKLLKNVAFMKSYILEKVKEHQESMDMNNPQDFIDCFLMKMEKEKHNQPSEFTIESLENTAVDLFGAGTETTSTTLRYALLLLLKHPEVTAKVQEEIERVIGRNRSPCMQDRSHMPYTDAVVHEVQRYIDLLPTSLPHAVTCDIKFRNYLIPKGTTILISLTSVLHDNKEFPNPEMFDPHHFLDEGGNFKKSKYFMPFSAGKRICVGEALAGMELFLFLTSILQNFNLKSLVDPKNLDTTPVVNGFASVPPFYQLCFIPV

`Oc1ccc2[nH]c(Cc3ccccc3)nc2c1CN1CCCC1`: the inhibition in data set [1] was < 50%.

On to `c1ccc(-c2nc3cccc(CN4CCCCC4)c3[nH]2)cc1`, for which the IC50 against Cytochrome P450 2C19 was > 50 µM; against Cytochrome P450 3A4, > 50 µM; at Cytochrome P450 2D6, 5 µM; on Cytochrome P450 2C9 it was > 50 µM; against Cytochrome P450 1A2, 7 µM. In the data set on Liver microsomes, this compound came in with a CLH of 3.6 mL/min/g.

For the compound `CCCNCc1c(O)ccc2[nH]c(-c3ccccc3)nc12`, the inhibition in data set [1] is < 50%.

In the case of `Oc1ccc2[nH]c(-c3ccccc3)nc2c1CN1CCOCC1`, in [1], the inhibition was < 50%.

For `Oc1ccc2[nH]c(-c3cccc(F)c3F)nc2c1CNCc1cccs1`, in [1], the inhibition was < 50%.

In the case of `Fc1ccc2[nH]c(-c3ccccc3)nc2c1CN1CCCCCC1`, the half-maximal inhibitory concentration (IC50) is 0.2 µM in [2] and > 50.1 µM in data set [5]. Further, the Selectivity ratio in the data set filed under Homo sapiens was > 100. The inhibition in data set [1] is < 50%. The inhibition result in data set [3] and in [4] was “Active” each time.

In the case of `Fc1ccc2nc(-c3ccccc3)[nH]c2c1CN1CCCCC1`, the IC50 was 0.0794 µM in [2] and > 50.1 µM in data set [5].

In the case of `Fc1ccc2[nH]c(-c3ccccc3)nc2c1CN1CCCCC1`, the Selectivity ratio in the data set filed under Homo sapiens is > 100. Moreover, in data set [1], the inhibition was < 50%. Further, the inhibition result in [3] and in data set [4] was “Active” in each case.

In the case of `CCC1CCCCN1Cc1c(F)ccc2[nH]c(-c3ccccc3)nc12` (stereo not drawn), the Selectivity ratio in the data set listed under Homo sapiens was > 100. Moreover, the inhibition in data set [1] was < 50%. For the same compound, the inhibition result in data set [3] and in data set [4] was “Active” throughout.

As to `CC(C)NCc1c(F)ccc2[nH]c(-c3ccccc3)nc12`, the Selectivity ratio in the data set listed under Homo sapiens was > 100. The inhibition in data set [1] is < 50%. In addition, the inhibition result in [3] and in data set [4] was “Active” in each case.

In the case of `Oc1ccc2nc(-c3ccccc3)[nH]c2c1CNC1CCCC1`, the figures for the IC50 in [2] and in data set [5] were 0.0316 µM and > 50.1 µM, respectively.

For the compound `Oc1ccc2nc(-c3cccc(F)c3F)[nH]c2c1CN1CCCC1`, the IC50 in data set [2] was 0.0126 µM; in data set [5], > 50.1 µM.

For `Fc1ccc2[nH]c(-c3ccccc3)nc2c1CN1CCCC1`, the inhibition in data set [1] is < 50%. For the same compound, the inhibition entry in data set [3] and in [4] was “Active” in each case.

With `CCC1CCCCN1Cc1c(F)ccc2nc(-c3ccccc3)[nH]c12` (stereo not drawn), the IC50 was 1 µM in data set [2] and > 50.1 µM in data set [5].

Consider `Fc1ccc2nc(-c3ccccc3)[nH]c2c1CN1CCOCC1`, for which the results for the concentration for half-maximal inhibition (IC50) in data set [2] and in data set [5] were 2.51 µM and > 50.1 µM, respectively.

For `Fc1ccc2nc(-c3ccccc3)[nH]c2c1CN1CCCC1`, the IC50 was > 30 µM against Cytochrome P450 2C19; > 30 µM against Cytochrome P450 3A4; 5 µM against Cytochrome P450 2D6; > 30 µM on Cytochrome P450 2C9; 16 µM on Cytochrome P450 1A2. Further, the CLH with Liver microsomes was < 0.5 mL/min/g.

In the case of `CN(C)Cc1c(O)ccc2[nH]c(-c3ccccc3)nc12`, the inhibition in [1] was < 50%.

Take `Oc1ccc2[nH]c(-c3ccccc3)nc2c1CN1CCCCC1`: the Kp in [6] came out at 2.7. Also, the inhibition in data set [1] was < 50%. In addition, the IC50 was > 30 µM against Cytochrome P450 2C19; > 30 µM at Cytochrome P450 3A4; 6 µM on Cytochrome P450 2D6; > 30 µM against Cytochrome P450 2C9; 3 µM on Cytochrome P450 1A2. The Tmax in data set [7] is 48 min. The same compound displayed a CLH in the data set on Liver microsomes of 3.9 mL/min/g. Further, the half-life in [8] is 66 min. The concentration in the data set with Blood is 600 nM.

Regarding `Oc1ccc2nc(-c3ccccc3)[nH]c2c1CN1CCCC1`, the IC50 was 0.00794 µM in data set [2] and > 50.1 µM in [5].

In the case of `CN1CCN(Cc2c(O)ccc3nc(-c4ccccc4)[nH]c23)CC1`, the figures for the IC50 in data set [2] and in [5] were 0.398 µM and > 50.1 µM, respectively.

`Oc1ccc2[nH]c(-c3ccccc3)nc2c1CN1CCCC1`: the Selectivity ratio in the data set filed under Homo sapiens was > 100. In addition, in data set [1], the inhibition is < 50%.

As to `O=C(c1cccc2nc(-c3ccccc3)[nH]c12)N1CCCCC1`, the IC50 in data set [2] was > 10 µM; in [5], > 50.1 µM.

Regarding `CN1CCN(Cc2c(O)ccc3[nH]c(-c4ccccc4)nc23)CC1`, the Selectivity ratio in the data set listed under Homo sapiens was > 100. Also, in [1], the inhibition was < 50%.

Regarding `Fc1ccc2[nH]c(-c3ccccc3)nc2c1CN1CCOCC1`, the Selectivity ratio in the data set listed under Homo sapiens was > 100. Moreover, the inhibition in [1] is < 50%. Besides, the inhibition entry in data set [3] and in data set [4] was “Active” in each case.

On to `CC(C)NCc1c(F)ccc2nc(-c3ccccc3)[nH]c12`, for which the IC50 in [2] was 0.794 µM; in data set [5] it was > 50.1 µM.

As for `Oc1ccc2[nH]c(-c3cccc(F)c3F)nc2c1CNCc1ccco1`, the Selectivity ratio in the data set listed under Homo sapiens is > 100. Further, the inhibition in data set [1] was < 50%.

Regarding `c1ccc(-c2nc3c(CN4CCCCC4)cccc3[nH]2)cc1`, in data set [1], the inhibition was < 50%. Further, the inhibition entry in [3] and in data set [4] was “Active” each time.

Take `Cc1ccc(-c2nc3c(CNC4CC4)c(O)ccc3[nH]2)cc1`: the IC50 in [2] was 0.0398 µM; in data set [5], > 50.1 µM. In the data set listed under Homo sapiens, the Selectivity ratio is > 100. Further, in [1], the inhibition was < 50%.

As to `Oc1ccc2[nH]c(-c3ccccc3)nc2c1CN1CCCCCC1`, the IC50 in data set [2] is 0.00794 µM; in data set [5] it was > 50.1 µM. The Selectivity ratio in the data set listed under Homo sapiens was > 100. Further, the inhibition in data set [1] was < 50%.

As for `Oc1ccc2[nH]c(-c3ccccc3)nc2c1CN1CCC(c2ccccc2)CC1`, the IC50 in [2] is 0.0794 µM; in data set [5], > 50.1 µM. The Selectivity ratio in the data set listed under Homo sapiens was > 100.

`Oc1ccc2nc(-c3cccc(F)c3F)[nH]c2c1CNCc1ccco1`: the figures for the IC50 in data set [2] and in data set [5] were 0.794 µM and > 50.1 µM, respectively.

As for `O=C(c1cccc2[nH]c(-c3ccccc3)nc12)N1CCCCC1`, the Selectivity ratio in the data set listed under Homo sapiens was > 100. For the same compound, in [1], the inhibition is < 50%. Besides, the inhibition entry in data set [3] and in [4] was “Active” throughout.

Take `Oc1ccc2[nH]c(-c3cccc(F)c3F)nc2c1CN1CCCC1`: the Selectivity ratio in the data set filed under Homo sapiens is > 100. Further, the inhibition in data set [1] was < 50%.

For `Oc1ccc2[nH]c(-c3ccccc3)nc2c1CNC1CCCC1`, in the data set filed under Homo sapiens, the Selectivity ratio was > 100. Moreover, the inhibition in [1] was < 50%.

`Oc1ccc2[nH]cnc2c1CN1CCCCC1`: the inhibition in data set [1] was < 50%.

In the case of `Cc1cccc2[nH]c(-c3ccccc3)nc12`, the results for the IC50 in data set [2] and in data set [5] were > 10 µM and > 50.1 µM, respectively. Besides, in the data set listed under Homo sapiens, the Selectivity ratio is > 100. Besides, the inhibition in [1] was < 50%. Besides, the inhibition result in data set [3] and in [4] was “Active” each time.

The values are drawn from ChEMBL document CHEMBL2010727, “A novel series of benzimidazole NR2B-selective NMDA receptor antagonists” (Bioorg Med Chem Lett, 2012).
